{"source": "patent US20050070510A1", "about": "“Substituted tetracycline compounds as synergistic antifungal agents” (Paratek Pharmaceuticals, Inc., priority 2001, published 2005)", "data": [{"tested_on": "COS-1 cells", "test": "In vitro mammalian cytotoxicity assay (Resazurin)", "values": [{"smiles": "CN(C)[C@@H]1C(O)=C(C(N)=O)C(=O)[C@@]2(C#N)C(O)=C3C(=O)c4c(O)ccc(-c5ccc(NC(=O)CN)cc5)c4C[C@@]3(N)C[C@@]12N", "note": "[VA]", "In Vitro Cytotoxicity": "** (toxicities less than 25 μg/mL are represented by **)"}, {"smiles": "CCOc1ccc(-c2ccc(O)c3c2C[C@@]2(N)C[C@@]4(N)[C@H](N(C)C)C(O)=C(C(N)=O)C(=O)[C@@]4(C#N)C(O)=C2C3=O)cc1CNC(=O)NC(C)(C)C", "note": "[QG]", "In Vitro Cytotoxicity": "* (toxicities greater than >25 μg/ml are represented by *)"}, {"smiles": "CN(C)c1cc(NC(=O)Nc2ccc(Cl)cc2C(F)(F)F)c(O)c2c1C[C@@]1(N)C[C@@]3(N)[C@H](N(C)C)C(O)=C(C(N)=O)C(=O)[C@@]3(C#N)C(O)=C1C2=O", "note": "[CB]", "In Vitro Cytotoxicity": "** (toxicities less than 25 μg/mL are represented by **)"}, {"smiles": "CN(C)[C@@H]1C(O)=C(C(N)=O)C(=O)[C@@]2(C#N)C(O)=C3C(=O)c4c(O)cccc4/C(=C\\c4cc(F)cc(F)c4)[C@@]3(N)[C@H](O)[C@@]12N", "note": "[DR]", "In Vitro Cytotoxicity": "* (toxicities greater than >25 μg/ml are represented by *)"}, {"smiles": "CN(C)[C@@H]1C(O)=C(C(N)=O)C(=O)[C@@]2(C#N)C(O)=C3C(=O)c4c(O)c(CN)cc(-c5ccc(I)cc5)c4C[C@@]3(N)C[C@@]12N", "note": "[JT]", "In Vitro Cytotoxicity": "* (toxicities greater than >25 μg/ml are represented by *)"}, {"smiles": "CN(C)[C@@H]1C(O)=C(C(N)=O)C(=O)[C@@]2(C#N)C(O)=C3C(=O)c4c(O)ccc(-c5ccc(Cl)o5)c4C[C@@]3(N)C[C@@]12N", "note": "[FV]", "In Vitro Cytotoxicity": "** (toxicities less than 25 μg/mL are represented by **)"}, {"smiles": "CCC(CC)CCc1ccc(O)c2c1C[C@@]1(N)C[C@@]3(N)[C@H](N(C)C)C(O)=C(C(N)=O)C(=O)[C@@]3(C#N)C(O)=C1C2=O", "note": "[GX]", "In Vitro Cytotoxicity": "** (toxicities less than 25 μg/mL are represented by **)"}, {"smiles": "CCCCOc1ccc(O)c2c1C[C@@]1(N)C[C@@]3(N)[C@H](N(C)C)C(O)=C(C(N)=O)C(=O)[C@@]3(C#N)C(O)=C1C2=O", "note": "[DL]", "In Vitro Cytotoxicity": "** (toxicities less than 25 μg/mL are represented by **)"}, {"smiles": "Cc1coc(NCc2cc(N(C)C)c3c(c2O)C(=O)C2=C(O)[C@]4(C#N)C(=O)C(C(N)=O)=C(O)[C@@H](N(C)C)[C@]4(N)C[C@]2(N)C3)n1", "note": "[TE]", "In Vitro Cytotoxicity": "* (toxicities greater than >25 μg/ml are represented by *)"}, {"smiles": "CN(C)c1ccc(NC(=O)NCc2cc(N(C)C)c3c(c2O)C(=O)C2=C(O)[C@]4(C#N)C(=O)C(C(N)=O)=C(O)[C@@H](N(C)C)[C@]4(N)C[C@]2(N)C3)cc1", "note": "[ND]", "In Vitro Cytotoxicity": "* (toxicities greater than >25 μg/ml are represented by *)"}, {"smiles": "CN(C)c1cc(CNC(=O)Nc2ccccc2)c(O)c2c1C[C@@]1(N)C[C@@]3(N)[C@H](N(C)C)C(O)=C(C(N)=O)C(=O)[C@@]3(C#N)C(O)=C1C2=O", "note": "[ME]", "In Vitro Cytotoxicity": "* (toxicities greater than >25 μg/ml are represented by *)"}, {"smiles": "COC(=O)c1ccc(O)c2c1C[C@@]1(N)C[C@@]3(N)[C@H](N(C)C)C(O)=C(C(N)=O)C(=O)[C@@]3(C#N)C(O)=C1C2=O", "note": "[RV]", "In Vitro Cytotoxicity": "** (toxicities less than 25 μg/mL are represented by **)"}, {"smiles": "COC(CN(Cc1ccc(O)c2c1C[C@@]1(N)C[C@@]3(N)[C@H](N(C)C)C(O)=C(C(N)=O)C(=O)[C@@]3(C#N)C(O)=C1C2=O)CC(OC)OC)OC", "note": "[SG]", "In Vitro Cytotoxicity": "* (toxicities greater than >25 μg/ml are represented by *)"}, {"smiles": "CN(C)[C@@H]1C(O)=C(C(N)=O)C(=O)[C@@]2(C#N)C(O)=C3C(=O)c4c(O)ccc(I)c4C[C@@]3(N)C[C@@]12N", "note": "[CU]", "In Vitro Cytotoxicity": "** (toxicities less than 25 μg/mL are represented by **)"}, {"smiles": "CC(=O)O[C@H]1[C@@]2(N)C(=C(O)[C@]3(C#N)C(=O)C(C(N)=O)=C(O)[C@@H](N(C)C)[C@]13N)C(=O)c1c(ccc(N=[N+]=N)c1O)[C@@H]2N", "note": "[DB]", "In Vitro Cytotoxicity": "** (toxicities less than 25 μg/mL are represented by **)"}, {"smiles": "CN(C)[C@@H]1C(O)=C(C(N)=O)C(=O)[C@@]2(C#N)C(O)=C3C(=O)c4c(O)ccc(-c5ccc(I)cc5)c4C[C@@]3(N)C[C@@]12N", "note": "[CW]", "In Vitro Cytotoxicity": "** (toxicities less than 25 μg/mL are represented by **)"}, {"smiles": "CCc1cc(CC)c2c(c1O)C(=O)C1=C(O)[C@]3(C#N)C(=O)C(C(N)=O)=C(O)[C@@H](N(C)C)[C@]3(N)C[C@]1(N)C2", "note": "[LF]", "In Vitro Cytotoxicity": "** (toxicities less than 25 μg/mL are represented by **)"}, {"smiles": "CN(C)c1cc(CNCCc2ccccc2)c(O)c2c1C[C@@]1(N)C[C@@]3(N)[C@H](N(C)C)C(O)=C(C(N)=O)C(=O)[C@@]3(C#N)C(O)=C1C2=O", "note": "[LX]", "In Vitro Cytotoxicity": "* (toxicities greater than >25 μg/ml are represented by *)"}, {"smiles": "CN(C)Cc1cccc(-c2ccc(O)c3c2C[C@@]2(N)C[C@@]4(N)[C@H](N(C)C)C(O)=C(C(N)=O)C(=O)[C@@]4(C#N)C(O)=C2C3=O)c1", "note": "[HQ]", "In Vitro Cytotoxicity": "* (toxicities greater than >25 μg/ml are represented by *)"}, {"smiles": "CN(C)[C@@H]1C(O)=C(C(N)=O)C(=O)[C@@]2(C#N)C(O)=C3C(=O)c4c(O)ccc(CCCNS(C)(=O)=O)c4C[C@@]3(N)C[C@@]12N", "note": "[IV]", "In Vitro Cytotoxicity": "* (toxicities greater than >25 μg/ml are represented by *)"}, {"smiles": "CN(C)CC(=O)Nc1ccc2c(c1O)C(=O)C1=C(O)[C@]3(C#N)C(=O)C(C(N)=O)=C(O)[C@@H](N(C)C)[C@]3(N)C[C@]1(N)C2", "note": "[KU]", "In Vitro Cytotoxicity": "* (toxicities greater than >25 μg/ml are represented by *)"}, {"smiles": "COc1ccc(NC(=O)Nc2cc(N(C)C)c3c(c2O)C(=O)C2=C(O)[C@]4(C#N)C(=O)C(C(N)=O)=C(O)[C@@H](N(C)C)[C@]4(N)C[C@]2(N)C3)cc1", "note": "[IE]", "In Vitro Cytotoxicity": "* (toxicities greater than >25 μg/ml are represented by *)"}, {"smiles": "CCNC(=O)CNC(=O)c1cccc(-c2ccc(O)c3c2C[C@@]2(N)C[C@@]4(N)[C@H](N(C)C)C(O)=C(C(N)=O)C(=O)[C@@]4(C#N)C(O)=C2C3=O)c1", "note": "[PD]", "In Vitro Cytotoxicity": "* (toxicities greater than >25 μg/ml are represented by *)"}, {"smiles": "CC(=O)c1ccc(/C=C2\\c3cccc(O)c3C(=O)C3=C(O)[C@]4(C#N)C(=O)C(C(N)=O)=C(O)[C@@H](N(C)C)[C@]4(N)[C@@H](O)[C@@]32N)cc1", "note": "[DE]", "In Vitro Cytotoxicity": "** (toxicities less than 25 μg/mL are represented by **)"}, {"smiles": "CNNC(=O)c1cccc(-c2ccc(O)c3c2C[C@@]2(N)C[C@@]4(N)C(N(C)C)C(O)=C(C(N)=O)C(=O)[C@@]4(C#N)C(O)=C2C3=O)c1", "note": "(stereo partly drawn) [QY]", "In Vitro Cytotoxicity": "* (toxicities greater than >25 μg/ml are represented by *)"}, {"smiles": "CN(C)[C@@H]1C(O)=C(C(N)=O)C(=O)[C@@]2(C#N)C(O)=C3C(=O)c4c(ccc(-c5ccc6c(c5)OCO6)c4O)[C@H](N)[C@@]3(N)[C@H](O)[C@@]12N", "note": "[PV]", "In Vitro Cytotoxicity": "** (toxicities less than 25 μg/mL are represented by **)"}, {"smiles": "CN(C)c1cc(NCc2ccc(OC(F)(F)F)cc2)c(O)c2c1C[C@@]1(N)C[C@@]3(N)[C@H](N(C)C)C(O)=C(C(N)=O)C(=O)[C@@]3(C#N)C(O)=C1C2=O", "note": "[MQ]", "In Vitro Cytotoxicity": "** (toxicities less than 25 μg/mL are represented by **)"}, {"smiles": "CCCC#Cc1ccc(O)c2c1C[C@@]1(N)C[C@@]3(N)[C@H](N(C)C)C(O)=C(C(N)=O)C(=O)[C@@]3(C#N)C(O)=C1C2=O", "note": "[KA]", "In Vitro Cytotoxicity": "** (toxicities less than 25 μg/mL are represented by **)"}, {"smiles": "CC(=O)c1cc(C(C)=O)c2c(c1O)C(=O)C1=C(O)[C@]3(C#N)C(=O)C(C(N)=O)=C(O)[C@@H](N(C)C)[C@]3(N)C[C@]1(N)C2", "note": "[LL]", "In Vitro Cytotoxicity": "* (toxicities greater than >25 μg/ml are represented by *)"}, {"smiles": "CN(C)[C@@H]1C(O)=C(C(N)=O)C(=O)[C@@]2(C#N)C(O)=C3C(=O)c4c(O)ccc(-c5ccc(CNC6CCCCC6)o5)c4C[C@@]3(N)C[C@@]12N", "note": "[SR]", "In Vitro Cytotoxicity": "** (toxicities less than 25 μg/mL are represented by **)"}, {"smiles": "CN(C)[C@@H]1C(O)=C(C(N)=O)C(=O)[C@@]2(C#N)C(O)=C3C(=O)c4c(ccc(NC(=O)Nc5ccc(Cl)cc5C(F)(F)F)c4O)[C@H](N)[C@@]3(N)[C@H]([S+](N)[O-])[C@@]12N", "note": "(stereo partly drawn) [BW]", "In Vitro Cytotoxicity": "** (toxicities less than 25 μg/mL are represented by **)"}, {"smiles": "COC(=O)c1cc(N(C)C)c2c(c1O)C(=O)C1=C(O)[C@]3(C#N)C(=O)C(C(N)=O)=C(O)[C@@H](N(C)C)[C@]3(N)C[C@]1(N)C2", "note": "[Compound TC, 9-Minocycline methyl ester]", "In Vitro Cytotoxicity": "* (toxicities greater than >25 μg/ml are represented by *)"}, {"smiles": "CN(C)[C@@H]1C(O)=C(C(N)=O)C(=O)[C@@]2(C#N)C(O)=C3C(=O)c4c(O)cccc4[C@H](OSC(F)(F)C(F)(F)F)[C@@]3(N)[C@H](O)[C@@]12N", "note": "[AS]", "In Vitro Cytotoxicity": "** (toxicities less than 25 μg/mL are represented by **)"}, {"smiles": "CO/N=C(/C)c1cc(C(C)(C)C)c(O)c2c1C[C@@]1(N)C[C@@]3(N)[C@H](N(C)C)C(O)=C(C(N)=O)C(=O)[C@@]3(C#N)C(O)=C1C2=O", "note": "[RA]", "In Vitro Cytotoxicity": "** (toxicities less than 25 μg/mL are represented by **)"}, {"smiles": "CN(C)[C@@H]1C(O)=C(C(N)=O)C(=O)[C@@]2(C#N)C(O)=C3C(=O)c4c(O)ccc(-c5ccc(I)c(C=O)c5)c4C[C@@]3(N)C[C@@]12N", "note": "[PL]", "In Vitro Cytotoxicity": "** (toxicities less than 25 μg/mL are represented by **)"}, {"smiles": "CN(C)[C@@H]1C(O)=C(C(N)=O)C(=O)[C@@]2(C#N)C(O)=C3C(=O)c4c(O)ccc(-c5ccc(C(F)(F)F)cc5)c4C[C@@]3(N)C[C@@]12N", "note": "[FQ]", "In Vitro Cytotoxicity": "** (toxicities less than 25 μg/mL are represented by **)"}, {"smiles": "CN(C)c1cc(C#Cc2cccc(O)c2)c(O)c2c1C[C@@]1(N)C[C@@]3(N)[C@H](N(C)C)C(O)=C(C(N)=O)C(=O)[C@@]3(C#N)C(O)=C1C2=O", "note": "[FG]", "In Vitro Cytotoxicity": "** (toxicities less than 25 μg/mL are represented by **)"}, {"smiles": "Cc1ccc(-c2ccc(O)c3c2C[C@@]2(N)C[C@@]4(N)[C@H](N(C)C)C(O)=C(C(N)=O)C(=O)[C@@]4(C#N)C(O)=C2C3=O)nc1", "note": "[VC]", "In Vitro Cytotoxicity": "** (toxicities less than 25 μg/mL are represented by **)"}, {"smiles": "CN(C)[C@@H]1C(O)=C(C(N)=O)C(=O)[C@@]2(C#N)C(O)=C3C(=O)c4c(O)c(-c5ccccc5)cc(-c5ccccc5)c4[C@H](N)[C@@]3(N)[C@H](O)[C@@]12N", "note": "[PX]", "In Vitro Cytotoxicity": "** (toxicities less than 25 μg/mL are represented by **)"}, {"smiles": "CN(C)[C@@H]1C(O)=C(C(N)=O)C(=O)[C@@]2(C#N)C(O)=C3C(=O)c4c(O)ccc(C#Cc5ccc([N+](=O)O)cc5)c4C[C@@]3(N)C[C@@]12N", "note": "[FU]", "In Vitro Cytotoxicity": "** (toxicities less than 25 μg/mL are represented by **)"}, {"smiles": "CN(C)[C@@H]1C(O)=C(C(N)=O)C(=O)[C@@]2(C#N)C(O)=C3C(=O)c4c(O)ccc(-c5ccc(CNC(C)(C)C)o5)c4C[C@@]3(N)C[C@@]12N", "note": "[SY]", "In Vitro Cytotoxicity": "* (toxicities greater than >25 μg/ml are represented by *)"}, {"smiles": "CN(C)Cc1ccc(-c2ccc(O)c3c2C[C@@]2(N)C[C@@]4(N)[C@H](N(C)C)C(O)=C(C(N)=O)C(=O)[C@@]4(C#N)C(O)=C2C3=O)cc1", "note": "[HR]", "In Vitro Cytotoxicity": "* (toxicities greater than >25 μg/ml are represented by *)"}]}]}
